In assay [1] the target is T1, Androgen Receptor (Homo sapiens, UniProt P10275).
T1 construct: endogenous in cells; host or cells: VCaP cells
T1 sequence (P10275 1-920): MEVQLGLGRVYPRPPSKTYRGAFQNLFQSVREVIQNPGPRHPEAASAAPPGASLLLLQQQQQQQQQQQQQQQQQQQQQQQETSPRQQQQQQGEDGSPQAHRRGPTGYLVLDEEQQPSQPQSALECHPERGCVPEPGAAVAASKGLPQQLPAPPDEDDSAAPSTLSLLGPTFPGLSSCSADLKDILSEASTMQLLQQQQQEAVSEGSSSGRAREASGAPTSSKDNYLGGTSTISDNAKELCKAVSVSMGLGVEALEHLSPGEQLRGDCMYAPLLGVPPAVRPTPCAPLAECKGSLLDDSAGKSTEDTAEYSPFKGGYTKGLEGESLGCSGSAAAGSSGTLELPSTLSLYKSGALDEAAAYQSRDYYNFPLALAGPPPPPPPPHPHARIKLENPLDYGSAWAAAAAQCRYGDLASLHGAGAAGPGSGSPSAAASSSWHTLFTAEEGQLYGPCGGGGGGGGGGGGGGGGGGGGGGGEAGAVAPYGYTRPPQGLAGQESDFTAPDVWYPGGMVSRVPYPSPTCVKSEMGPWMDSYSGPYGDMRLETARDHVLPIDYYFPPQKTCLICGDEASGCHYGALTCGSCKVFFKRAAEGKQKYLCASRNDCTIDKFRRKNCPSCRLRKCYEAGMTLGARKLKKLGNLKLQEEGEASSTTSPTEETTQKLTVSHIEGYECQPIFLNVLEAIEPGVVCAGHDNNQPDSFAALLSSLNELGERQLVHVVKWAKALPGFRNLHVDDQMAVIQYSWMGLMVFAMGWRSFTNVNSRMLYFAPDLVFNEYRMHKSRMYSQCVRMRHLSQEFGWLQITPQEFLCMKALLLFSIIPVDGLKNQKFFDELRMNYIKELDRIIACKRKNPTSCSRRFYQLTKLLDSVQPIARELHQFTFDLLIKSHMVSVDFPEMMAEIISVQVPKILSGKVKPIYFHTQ
Put plainly: Androgen Receptor ELISA assay (PathScan AR ELISA) in VCaP cells: AR degradation, Dmax and DC50. It counts as cell-based. The essentials: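 After 24 h exposure of VCaP cells (charcoal-stripped serum, 0.1 nM R1881 agonist, 0.1% DMSO) to seven half-log compound concentrations, residual AR in lysates was measured by PathScan ELISA (TMB absorbance, 450 nm). Cells were plated at 30,000/well and grown at least 3 days beforehand.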
In general terms: In an ELISA, binding on a coated surface is turned into a signal by an enzyme label.

The test system of assay [2] is VCaP cells. As to the kind of experiment: VCaP cell proliferation assay (Cell Titer Glo), GI50. It counts as cell-based. The settings on record: Homo sapiens; VCaP cells, 0.1 nM R1881; Table 37; read-out: GI50, Inhibition of VCaP Proliferation. The procedure:
2. VCaP Cell Proliferation Assay.
VCaP cells are plated 7,500/well 200 μL/well in VCaP assay medium [Phenol red free RPMI (Gibco Cat #11835-030); 5% Charcoal Stripped (Dextran treated) FBS (Omega Scientific, Cat #FB-04); Pen/Strep Life Technologies (Gibco Cat #: 10378-016); 0.1 nM R1881 (Sigma, Cat #R0908) is added upon the start of the assay, not during initial plating of the cells).
The assay was performed as follows: the cells are grown for a minimum of 3 days to deplete androgens; dosing of PROTACs and R1881 is performed as for AR ELISA; the baseline reading of Cell Titer Glo can be performed on day of dosing.
VCaP cells with 0.1 nM R1881 will double once in 4 days. Gently draw off 110 μL of media so as not to disturb the adherent cells; add 110 μL of CTG; incubate with slow shaking for 20 minutes; and read luminescence on a plate reader.

Where [3] appears, read: VCaP, highest percentage of Androgen Receptor degradation observed, VCaP cells (Table 32); read-out: VCaP Dmax (%).
Setting [4] is: concentration that caused 50% Androgen Receptor degradation, VCaP cells (Table 32); read-out: VCaP DC50.
Where [5] appears, read: VCaP cells; concentration that caused 50% Androgen Receptor degradation; read-out: VCaP DC50.
Setting [6] is: VCaP, VCaP cells; highest percentage of Androgen Receptor degradation; read-out: VCaP Dmax (%).
Setting [7] is: read-out: VCaP DC50; VCaP cells; concentration that caused 50% Androgen Receptor degradation.

Like-named read-outs stand apart in the source and are kept apart here. Some results are limits rather than exact numbers.

By Dmax is commonly meant the largest share of the target that was removed. As usually defined, the DC50 is the concentration at which degradation of the target reaches its halfway point. As to `CC(C)(C)[C@H](NC(=O)COCCCCOc1ccc(C(=O)N[C@H]2C(C)(C)[C@H](Oc3ccc(C#N)c(Cl)c3)C2(C)C)cc1)C(=O)N1C[C@H](O)C[C@H]1C(=O)NCc1ccc(Cl)cc1` [Example 169, (2S,4R)-N-[(4-chlorophenyl)methyl]-1-[(2S)-3,3-dimethyl-2-{2-[4-(4-{[trans-3-(3-chloro-4-cyanophenoxy)-2,2,4,4-tetramethylcyclobutyl]carbamoyl}phenoxy)butoxy]acetamido}butanoyl]-4-hydroxypyrrolidine-2-carboxamide], the Dmax in assay [1] (setting [3]) lay in the range of 51 to 70%. Moreover, the DC50 in assay [1] (setting [4]) was below 50 nM. The GI50 in assay [2] fell in the range of 51 to 250 nM.
On to `CC(C)(C)[C@H](NC(=O)COCCCCOc1ccc(C(=O)N[C@H]2C(C)(C)[C@H](Oc3ccc(C#N)c(Cl)c3)C2(C)C)cc1)C(=O)N1C[C@H](O)C[C@H]1C(=O)NCc1ccc(C#N)cc1` [Example 170, (2S,4R)-N-[(4-cyanophenyl)methyl]-1-[(2S)-3,3-dimethyl-2-{2-[4-(4-{[trans-3-(3-chloro-4-cyanophenoxy)-2,2,4,4-tetramethylcyclobutyl]carbamoyl}phenoxy)butoxy]acetamido}butanoyl]-4-hydroxypyrrolidine-2-carboxamide], for which the Dmax in assay [1] (setting [3]) was above 71%. In addition, in assay [1] (setting [4]), the DC50 was below 50 nM. In addition, the GI50 in assay [2] is at most 50 nM.
Take `Cc1ncsc1-c1ccc(CNC(=O)[C@@H]2C[C@@H](O)CN2C(=O)[C@@H](NC(=O)COCCCCCNc2ccc(C(=O)N[C@H]3C(C)(C)[C@H](Oc4ccc(C#N)c(Cl)c4)C3(C)C)cc2)C(C)(C)C)cc1` [Example 172, (2S,4R)-1-[(2S)-3,3-dimethyl-2-[2-({5-[(4-{[trans-3-(3-chloro-4-cyanophenoxy)-2,2,4,4-tetramethylcyclobutyl]carbamoyl}phenyl)amino]pentyl}oxy)acetamido]butanoyl]-4-hydroxy-N-{[4-(4-methyl-1,3-thiazol-5-yl)phenyl]methyl}pyrrolidine-2-carboxamide]: in assay [1] (setting [3]), the Dmax was above 71%. Also, the GI50 in assay [2] was at most 50 nM.
`Cc1ncsc1-c1ccc(CNC(=O)[C@@H]2C[C@@H](O)CN2C(=O)[C@@H](NC(=O)COCc2ccc(Oc3ccc(C(=O)N[C@H]4C(C)(C)[C@H](Oc5ccc(C#N)c(Cl)c5)C4(C)C)cc3)cc2)C(C)(C)C)cc1` [Example 183, (2S,4R)-1-[(2S)-3,3-dimethyl-2-(2-{[4-(4-{[trans-3-(3-chloro-4-cyanophenoxy)-2,2,4,4-tetramethylcyclobutyl]carbamoyl}phenoxy)phenyl]methoxy}acetamido)butanoyl]-4-hydroxy-N-{[4-(4-methyl-1,3-thiazol-5-yl)phenyl]methyl}pyrrolidine-2-carboxamide]: the greatest degradation seen (Dmax) in assay [1] (setting [3]) was above 71%. The GI50 in assay [2] was at most 50 nM.
Consider `Cc1ncsc1-c1ccc([C@H](C)NC(=O)[C@@H]2C[C@@H](O)CN2C(=O)[C@@H](NC(=O)COCCCCOc2ccc(-c3ccc(N4C(=S)N(c5cnc(C#N)c(C(F)(F)F)c5)C(=O)C4(C)C)cc3)cc2)C(C)(C)C)cc1` [Example 194, (2S,4R)-1-[(2S)-2-(2-{4-[4-(4-{3-[6-cyano-5-(trifluoromethyl)pyridin-3-yl]-5,5-dimethyl-4-oxo-2-sulfanylideneimidazolidin-1-yl}phenyl)phenoxy]butoxy}acetamido)-3,3-dimethylbutanoyl]-4-hydroxy-N-[(1S)-1-[4-(4-methyl-1,3-thiazol-5-yl)phenyl]ethyl]pyrrolidine-2-carboxamide], for which the DC50 in assay [1] (setting [5]) is below 50 nM. Further, the Dmax in assay [1] (setting [6]) is above 71%. Besides, the GI50 in assay [2] lay within 51 to 250 nM.
On to `Cc1ncoc1-c1ccc([C@H](C)NC(=O)[C@@H]2C[C@@H](O)CN2C(=O)[C@@H](NC(=O)COCCCCOc2ccc(-c3ccc(N4C(=S)N(c5cnc(C#N)c(C(F)(F)F)c5)C(=O)C4(C)C)cc3)cc2)C(C)(C)C)cc1` [Example 195, (2S,4R)-1-[(2S)-2-(2-{4-[4-(4-{3-[6-cyano-5-(trifluoromethyl)pyridin-3-yl]-5,5-dimethyl-4-oxo-2-sulfanylideneimidazolidin-1-yl}phenyl)phenoxy]butoxy}acetamido)-3,3-dimethylbutanoyl]-4-hydroxy-N-[(1S)-1-[4-(4-methyl-1,3-oxazol-5-yl)phenyl]ethyl]pyrrolidine-2-carboxamide], for which the 50% degradation concentration (DC50) in assay [1] (setting [5]) was below 50 nM. Besides, the maximal degradation (Dmax) in assay [1] (setting [6]) was above 71%. In assay [2], the GI50 lay in the range of 51 to 250 nM.
For `Cc1ncsc1-c1ccc(CNC(=O)[C@@H]2C[C@@H](O)CN2C(=O)[C@@H](NC(=O)COCCCCOc2ccc(-c3ccc(N4C(=S)N(c5cnc(C#N)c(C(F)(F)F)c5)C(=O)C4(C)C)c(F)c3)cc2)C(C)(C)C)cc1` [Example 197, (2S,4R)-1-[(2S)-2-(2-{4-[4-(4-{3-[6-cyano-5-(trifluoromethyl)pyridin-3-yl]-5,5-dimethyl-4-oxo-2-sulfanylideneimidazolidin-1-yl}-3-fluorophenyl)phenoxy]butoxy}acetamido)-3,3-dimethylbutanoyl]-4-hydroxy-N-{[4-(4-methyl-1,3-thiazol-5-yl)phenyl]methyl}pyrrolidine-2-carboxamide] the same measures were below 50 nM, above 71% and 51 to 250 nM.
In the case of `Cc1ncsc1-c1ccc(CNC(=O)[C@@H]2C[C@@H](O)CN2C(=O)[C@@H](NC(=O)COCC2CC3(C2)CC(COc2ccc(N4C(=S)N(c5ccc(C#N)c(C(F)(F)F)c5)C(=O)C4(C)C)cc2)C3)C(C)(C)C)cc1` (stereo partly drawn) [Example 201, (2S,4R)-1-[(2S)-2-[2-({6-[(4-{3-[4-cyano-3-(trifluoromethyl)phenyl]-5,5-dimethyl-4-oxo-2-sulfanylideneimidazolidin-1-yl}phenoxy)methyl]spiro[3.3]heptan-2-yl}methoxy)acetamido]-3,3-dimethylbutanoyl]-4-hydroxy-N-{[4-(4-methyl-1,3-thiazol-5-yl)phenyl]methyl} pyrrolidine-2-carboxamide], the Dmax in assay [1] (VCaP, read-out: VCaP Dmax (%)) was above 71%. The DC50 in assay [1] (setting [7]) was below 50 nM. Moreover, the GI50 in assay [2] was in the range of 51 to 250 nM.
For `Cc1ncsc1-c1ccc([C@H](C)NC(=O)[C@@H]2C[C@@H](O)CN2C(=O)[C@@H](NC(=O)COCC2CC3(C2)CC(COc2ccc(N4C(=S)N(c5ccc(C#N)c(C(F)(F)F)c5)C(=O)C4(C)C)cc2)C3)C(C)(C)C)cc1` (stereo partly drawn) [Example 202, (2S,4R)-1-[(2S)-2-[2-({6-[(4-{3-[4-cyano-3-(trifluoromethyl)phenyl]-5,5-dimethyl-4-oxo-2-sulfanylideneimidazolidin-1-yl}phenoxy)methyl]spiro[3.3]heptan-2-yl}methoxy)acetamido]-3,3-dimethylbutanoyl]-4-hydroxy-N-[(1S)-1-[4-(4-methyl-1,3-thiazol-5-yl)phenyl]ethyl] pyrrolidine-2-carboxamide] the same measures were above 71%, below 50 nM and 51 to 250 nM.
With `Cc1ncsc1-c1ccc(CNC(=O)[C@@H]2C[C@@H](O)CN2C(=O)[C@@H](NC(=O)COCCNc2ccc(-c3ccc(C(=O)NC4C(C)(C)C(Oc5ccc(C#N)c(Cl)c5)C4(C)C)cc3)cc2)C(C)(C)C)cc1` (stereo partly drawn) [Example 204, (2S,4R)-1-[(2S)-2-[2-(2-{[4-(4-{[3-(3-chloro-4-cyanophenoxy)-2,2,4,4-tetramethylcyclobutyl]carbamoyl}phenyl)phenyl]amino}ethoxy)acetamido]-3,3-dimethylbutanoyl]-4-hydroxy-N-{[4-(4-methyl-1,3-thiazol-5-yl)phenyl]methyl}pyrrolidine-2-carboxamide], the DC50 in assay [1] (setting [5]) is below 50 nM. For the same compound, in assay [1] (setting [6]), the maximal degradation (Dmax) is above 71%. Further, in assay [2], the GI50 was at most 50 nM.

The record behind these values is patent US11427548B2 (Arvinas Operations, Inc., priority 2015, dated 2022).
